Read-outs that look alike come from different tables or passages of the source.
How the values were obtained:
[1] = target: T1, 5-HT1A receptor (Rattus norvegicus, UniProt P19327); experiment: 5-HT1A receptor binding activity in rat hippocampal membrane homogenate
T1 construct: rat hippocampal membrane homogenate; from tissue; host or cells: rat hippocampus membrane homogenate
T1 sequence (P19327 1-422): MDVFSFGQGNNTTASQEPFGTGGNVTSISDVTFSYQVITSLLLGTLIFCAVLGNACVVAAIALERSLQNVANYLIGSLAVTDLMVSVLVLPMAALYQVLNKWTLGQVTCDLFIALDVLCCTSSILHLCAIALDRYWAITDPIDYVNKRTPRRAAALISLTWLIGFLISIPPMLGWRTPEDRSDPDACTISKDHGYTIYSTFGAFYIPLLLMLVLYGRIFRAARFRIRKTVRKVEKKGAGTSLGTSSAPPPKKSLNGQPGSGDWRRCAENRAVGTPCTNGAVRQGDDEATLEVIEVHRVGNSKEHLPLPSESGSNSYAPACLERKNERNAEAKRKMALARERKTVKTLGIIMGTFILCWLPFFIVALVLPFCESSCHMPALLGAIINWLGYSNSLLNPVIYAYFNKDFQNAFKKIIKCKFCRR
Experimental: The compounds of the invention were tested for 5-HT1A receptor binding activity in rat hippocampal membrane homogenate by the method of B S Alexander and M D Wood, J Pharm Pharmarol, 1988, 40, 888-891.

[2] = target: T2, 5-HT1A receptor (Cavia porcellus, UniProt A0A286Y074); experiment: 5-HT1A receptor antagonism: antagonism of 5-carboxamidotryptamine in isolated ileum in vitro; set-up: species or system guine-pig; settings: guinea-pig ileum in vitro, read-out: pA2 (converted)
T2 construct: in the guine-pig ileum in in vitro; from tissue; host or cells: guinea-pig isolated ileum
T2 sequence (A0A286Y074 1-421): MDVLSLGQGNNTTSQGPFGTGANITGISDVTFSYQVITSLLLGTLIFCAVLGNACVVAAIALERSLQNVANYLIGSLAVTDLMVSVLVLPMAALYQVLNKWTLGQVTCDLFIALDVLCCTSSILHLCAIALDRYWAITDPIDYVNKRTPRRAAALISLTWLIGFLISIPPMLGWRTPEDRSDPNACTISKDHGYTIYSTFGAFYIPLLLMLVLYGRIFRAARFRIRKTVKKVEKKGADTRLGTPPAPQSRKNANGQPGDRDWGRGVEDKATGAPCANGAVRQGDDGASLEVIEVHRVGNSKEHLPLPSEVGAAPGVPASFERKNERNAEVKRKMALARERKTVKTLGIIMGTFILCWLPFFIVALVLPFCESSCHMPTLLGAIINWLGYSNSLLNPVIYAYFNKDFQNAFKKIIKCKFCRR
Experimental: The compounds are tested for 5-HT1A receptor antagonism activity in a test involving the antagonism of 5-carboxamidotryptamine in the guine-pig ileum in in vitro (based upon the procedure of Fozard et al, Br J Pharmac 1985, 86, 601P).

[3] = target: D2 receptor sites (Homo sapiens, UniProt P14416); experiment: Affinity for D2 receptor sites (procedure of Hancock et al); assay type: binding; settings: read-out: Affinity for D2 site IC50
[4] = test system: α1 sites; experiment: Affinity for α1 sites (procedure of Morrow et al); assay type: binding; settings: read-out: Affinity for α1 site IC50
[5] = 5-HT1A receptor binding, rat hippocampal membrane homogenate, read-out: IC50

D2 receptor sites, sequence (P14416 whole entry): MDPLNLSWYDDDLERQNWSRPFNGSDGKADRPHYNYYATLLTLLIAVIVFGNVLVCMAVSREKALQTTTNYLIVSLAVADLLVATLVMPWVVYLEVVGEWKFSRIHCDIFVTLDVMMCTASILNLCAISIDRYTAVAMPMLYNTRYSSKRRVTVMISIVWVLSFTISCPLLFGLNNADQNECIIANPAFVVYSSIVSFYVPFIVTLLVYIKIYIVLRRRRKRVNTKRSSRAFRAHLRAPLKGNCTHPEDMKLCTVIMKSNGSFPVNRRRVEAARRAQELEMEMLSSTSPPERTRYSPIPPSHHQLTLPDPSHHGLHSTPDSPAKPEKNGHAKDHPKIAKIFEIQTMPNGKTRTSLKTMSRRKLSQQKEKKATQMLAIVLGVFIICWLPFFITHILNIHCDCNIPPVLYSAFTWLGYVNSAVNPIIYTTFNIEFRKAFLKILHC

Structure (SMILES)	Kb [2] [nM]	IC50 [1, 5] [nM]	IC50 [3] [nM]	IC50 [4] [nM]	IC50 [1] [nM]
COc1ccccc1N1CCN(CC(C(=O)N2CCCCCC2)c2ccccc2)CC1 (stereo not shown) [Example 34, 2,3,4,5,6,7-hexahydro-1-{3-{1-[4-(2-methoxyphenyl)piperazinyl]}-2-phenylpropionyl}-1H-azepine]	–	–	–	–	9
COc1ccccc1N1CCN(CC(C(=O)NCc2ccccc2)c2ccccc2)CC1 (stereo not shown) [Example 23, 3-{1-[4-(2-Methoxyphenyl)piperazinyl]}-2-phenyl-N-(phenylmethyl)propanamide]	100	59	–	–	–
CCOC(=O)C(Cc1ccccc1)CN1CCN(c2ccccc2OC)CC1 (stereo not shown) [Example 29, Ethyl 2-{1-[4-(2-methoxyphenyl)piperazinyl]methyl}-3-phenylpropanoate]	–	25	–	–	–
COc1ccccc1N1CCN(CC(OC(=O)C2CCCCC2)c2ccccc2)CC1 (stereo not shown) [Example 40, 2-{1-[4-(2-Methoxyphenyl)piperazinyl]}-1-phenylethyl cyclohexanecarboxylate]	–	78	–	–	–
COC(=O)C(CN1CCN(c2ccccc2OC)CC1)c1ccccc1 (stereo not shown) [Example 42, Methyl 3-[1-[4-(2-methoxyphenyl)piperazinyl]]-2-phenylpropionate]	126	37	–	988	–
CNC(=O)C(CN1CCN(c2ccccc2OC)CC1)c1ccccc1 (stereo not shown) [Example 8, methylamide]	–	45	–	–	–
COc1ccccc1N1CCN(C[C@@H](NC(=O)C2CCCCC2)c2ccccc2)CC1 [Example 37, (S)-N-[2-[1-[4-(2-Methoxyphenyl)piperazinyl]]-1-phenylethyl]cyclohexanecarboxylic acid amide]	25.1	45	–	7310	–
COc1ccccc1N1CCN(CC(C(=O)NC2CC2)c2ccccc2)CC1 (stereo not shown) [Example 31, cyclopropyl-amide]	39.8	28	–	–	–
COc1ccccc1N1CCN(CC(C(=O)N(C)C)c2ccccc2)CC1 (stereo not shown) [Example 22, N,N-Dimethyl-3-{1-[4-(2-methoxyphenyl)piperazinyl]}-2-phenylpropanamide]	–	45	–	1230	–
CCOC(=O)N[C@H](CN1CCN(c2ccccc2OC)CC1)c1ccccc1 [Example 41, Ethyl(S)-N-[2-[1-[4-(2-methoxyphenyl)piperazinyl]]-1-phenylethyl]carbamate]	–	88	–	2850	–
COc1ccccc1N1CCN(CC(C(=O)NC2CCCCCCC2)c2ccccc2)CC1 (stereo not shown) [Example 35]	–	16.5	–	–	–

The remaining molecules from weak to strong by IC50 [1, 5], led by results:

Kb [2] [nM]	IC50 [1, 5] [nM]	IC50 [3] [nM]	IC50 [4] [nM]	Structure (SMILES)	IC50 [1] [nM]
–	127	–	–	COc1ccccc1N1CCN(CC(C(=O)Nc2ccccc2)c2ccccc2)CC1 (stereo not shown) [Example 6, 3-{1-[4-(2-Methoxyphenyl)piperazinyl]}-2-phenyl-N-phenylpropanamide]	–
–	75	–	> 10000	O=C(NC1CCCCC1)C(CN1CCN(c2ncccn2)CC1)c1ccccc1 (stereo not shown) [Example 24, N-Cyclohexyl-2-phenyl-3-{1-[4-(2-pyrimidinyl)piperazinyl]}propanamide]	–
126	49	–	1200	COc1ccccc1N1CCN(CC(C(=O)NCCN2C(=O)CC3(CCCC3)CC2=O)c2ccccc2)CC1 (stereo not drawn) [Example 21, 8-{α-{1-[4-(2-methoxyphenyl)piperazinyl]methyl}phenylacetamidoethyl}-8-azaspiro[4.5]deca-7,9-dione]	–
158	46	–	1090	COc1ccccc1N1CCN(CC(C(=O)OCC(C)C)c2ccccc2)CC1 (stereo not shown) [Example 26, 2-Methylpropyl 3-{1-[4-(2-methoxyphenyl)piperazinyl]}-2-phenylpropanoate]	–
126	24	6290	–	COc1ccccc1N1CCN(CC(C(=O)NC2CCCCC2)c2ccccc2)CC1 (stereo not shown) [Example 19]	–
–	22	–	–	COc1ccccc1N1CCN(CC(OC(=O)Nc2ccccc2)c2ccccc2)CC1 (stereo not shown) [Example 39, O-[2-[1-[4-(2-Methoxyphenyl)piperazinyl]]-1-phenylethyl]-N-phenylcarbamate]	–
158	21	> 10000	851	COc1ccccc1N1CCN(CC(C(=O)N2CCCC2)c2ccccc2)CC1 (stereo not shown) [Example 32, 1-{3-{1-[4-(2-methoxyphenyl)piperazinyl]}-2-phenylpropionyl}pyrrolidine]	–
–	8	–	–	COc1ccccc1N1CCN(CC(C(=O)N2CCCCC2)c2ccccc2)CC1 (stereo not shown) [Example 33, 1-{3-{1-[4-(2-methoxyphenyl)piperazinyl]}-2-phenylpropionyl}piperidine]	–

Source: patent EP0395312B1, “Piperazine derivatives” (JOHN WYETH & BROTHER LIMITED, priority 1989, dated 1990)
